From article PMC10593844, “Structure-function analyses reveal key molecular determinants of HIV-1 CRF01_AE resistance to the entry inhibitor temsavir” (Nature Communications, 2023)
Where “and” joins values, the source holds several entries; their conditions need not be identical. Equal entries are not always repeated. Where two headings read alike, the source gives them in different places.

Assays:
HIV-1 Env with Ile475 = test system: HIV-1 Env with Ile475; design: method as in PMID 28825711; conditions: Ile475 substitution; cited from earlier work
[1] = test system: HIV-1 pseudovirus bearing EnvJR-FL S375H; assay: organism not typed; assay type: cell-based; conditions: for Relative infectivity (%): JRFL S375H
[2] = test system: HIV-1 pseudovirus bearing EnvJR-FL S375F; assay: organism not typed; assay type: cell-based
[3] = test system: CRF01_AE CM244 Env WT on HEK293T cells; assay type: binding; conditions: temsavir 10 µM, listed as TMR
[4] = test system: HIV-1JR-FL Env S375W on HEK293T cells; assay type: binding; conditions: JRFL S375W; temsavir 10 µM; listed as TMR
[5] = test system: HIV-1 pseudovirus bearing CRF01_AE CM244 Env LM; assay: organism not typed; assay type: cell-based; conditions: for Relative infectivity (%): CM244 LM
[6] = test system: HIV-1JR-FL Env S375N on HEK293T cells; assay type: binding; conditions: JRFL S375N; temsavir 10 µM; listed as TMR
[7] = test system: HIV-1 pseudovirus bearing EnvJR-FL S375W; assay: organism not typed; assay type: cell-based; conditions: for Relative infectivity (%): JRFL S375W
[8] = test system: HIV-1 pseudovirus bearing CRF01_AE CM244 Env WT; assay: organism not typed; assay type: cell-based; conditions: for Relative infectivity (%): CM244 WT
[9] = test system: HIV-1 pseudovirus bearing clade B YU2 Env LM+SH; assay: organism not typed; assay type: cell-based; conditions: for Relative infectivity (%): YU2 LM+SH
[10] = test system: CRF01_AE 92TH023 Env H375T on HEK293T cells; assay type: binding; conditions: 92TH023 H375T; temsavir 10 µM; listed as TMR
[11] = test system: HIV-1 pseudovirus bearing CRF01_AE 92TH023 Env WT; assay: organism not typed; assay type: cell-based; conditions: for Relative infectivity (%): 92TH023 WT
[12] = test system: CRF01_AE CM244 Env LM on HEK293T cells; assay type: binding; conditions: temsavir 10 µM, listed as TMR
[13] = test system: HIV-1 pseudovirus bearing clade B YU2 Env D474N/M475I/R476K; assay type: cell-based
[14] = test system: HIV-1 pseudovirus bearing EnvJR-FL S375T; assay: organism not typed; assay type: cell-based; conditions: for Relative infectivity (%): JRFL S375T
[15] = test system: HIV-1 pseudovirus bearing EnvJR-FL S375M; assay: organism not typed; assay type: cell-based
[16] = test system: CRF01_AE 92TH023 Env LM on HEK293T cells; assay type: binding; conditions: 92TH023 LM; temsavir 10 µM; listed as TMR
[17] = test system: HIV-1JR-FL Env S375Y on HEK293T cells; assay type: binding; conditions: JRFL S375Y; temsavir 10 µM; listed as TMR
[18] = test system: HIV-1 pseudovirus bearing CRF01_AE 92TH023 Env LMHT; assay: organism not typed; assay type: cell-based; conditions: for Relative infectivity (%): 92TH023 LMHT
[19] = test system: HIV-1JR-FL Env WT on HEK293T cells; assay type: binding; conditions: JRFL WT; temsavir 10 µM; listed as TMR
[20] = test system: HIV-1JR-FL Env S375H on HEK293T cells; assay type: binding; conditions: JRFL S375H; temsavir 10 µM; listed as TMR
[21] = biological target: T1, clade B YU2 Env S375T on HEK293T cells (Human immunodeficiency virus type 1 group M subtype B, UniProt P35961, S370T); assay type: binding; conditions: temsavir 10 µM, listed as TMR
T1 construct: expressed in transfected cells; host or cells: HEK293T (pSVIIIenv co-transfected with a Tat expressor)

[22] = test system: panel of 208 HIV-1 Envs from different clades; conditions: cited from earlier work; for IC50: read-out: Neutralization IC50
[23] = biological target: T2, clade B YU2 Env S375H on HEK293T cells (Human immunodeficiency virus type 1 group M subtype B, UniProt P35961, S370H); assay type: binding; conditions: temsavir 10 µM, listed as TMR
T2 construct: expressed in transfected cells; host or cells: HEK293T (pSVIIIenv co-transfected with a Tat expressor)

[24] = biological target: T3, clade B YU2 Env WT on HEK293T cells (Human immunodeficiency virus type 1 group M subtype B, UniProt P35961); assay type: binding; conditions: temsavir 10 µM, listed as TMR
T3 construct: expressed in transfected cells; host or cells: HEK293T (pSVIIIenv co-transfected with a Tat expressor)

COc1cnc(-n2cnc(C)n2)c2[nH]cc(C(=O)C(=O)N3CCN(C(=O)c4ccccc4)CC3)c12 [Temsavir, temsavir]
fold reduction in temsavir activity (HIV-1 Env with Ile475): ~ 90 fold
IC50 ([1]; Cf2Th-CD4/CCR5): > 0.1 µM
Relative infectivity (%) ([1]; Temsavir 0.1 nM): 97.5172% and 99.7027% and 99.1558%
Relative infectivity (%) ([1]; Temsavir 0.5 nM): 94.7921% and 100.166% and 82.7419%
Relative infectivity (%) ([1]; Temsavir 1 nM): 92.4628% and 111.302% and 80.2089%
Relative infectivity (%) ([1]; Temsavir 5 nM): 89.7935% and 91.5252% and 60.6402%
Relative infectivity (%) ([1]; Temsavir 25 nM): 193.211% and 192.383% and 121.78% and 152.325%
Relative infectivity (%) ([1]; Temsavir 100 nM): 67.6822% and 45.331% and 44.6004% and 67.6402%
IC50 ([2]; Cf2Th-CD4/CCR5): > 0.1 µM
Relative infectivity (%) ([2]; JRFL S375F, Temsavir 0.1 nM): 97.0588% and 121.506% and 78.411%
sCD4 binding (+TMR) - Fold over DMSO [3]: 1.042 and 0.9403 and 0.9549
sCD4 binding (+TMR) - Fold over DMSO [4]: 1.038 and 0.9906 and 0.8801
Relative infectivity (%) ([5]; Temsavir 1 nM): 102.819% and 104.55% and 70.4862%
Relative infectivity (%) ([5]; Temsavir 10 nM): 98.1419% and 107.4% and 59.1318%
Relative infectivity (%) ([5]; Temsavir 50 nM): 106.175% and 96.9147% and 54.579%
IC50 ([5]; Cf2Th-CD4/CCR5): > 0.05 µM
sCD4 binding (+TMR) - Fold over DMSO [6]: 0.2273 and 0.2477 and 0.2229
IC50 ([7]; Cf2Th-CD4/CCR5): > 0.1 µM
Relative infectivity (%) ([7]; Temsavir 0.1 nM): 99.9863% and 100.025% and 95.7102%
Relative infectivity (%) ([7]; Temsavir 0.5 nM): 97.6131% and 107.833% and 88.0394%
Relative infectivity (%) ([7]; Temsavir 1 nM): 112.34% and 95.1648% and 85.749%
Relative infectivity (%) ([7]; Temsavir 5 nM): 108.208% and 99.6983% and 99.0301%
Relative infectivity (%) ([8]; Temsavir 1 nM): 91.0915% and 114.42% and 104.549%
Relative infectivity (%) ([8]; Temsavir 5 nM): 80.9718% and 103.03% and 93.7921%
Relative infectivity (%) ([8]; Temsavir 10 nM): 79.7783% and 110.299% and 108.245%
Relative infectivity (%) ([8]; Temsavir 50 nM): 78.0773% and 106.103% and 90.5088%
IC50 ([8]; Cf2Th-CD4/CCR5): > 0.05 µM
IC50 ([9]; Cf2Th-CD4/CCR5): > 0.1 µM
Relative infectivity (%) ([9]; Temsavir 1 nM): 101.627% and 98.3187% and 88.9144%
Relative infectivity (%) ([9]; Temsavir 5 nM): 105.436% and 97.7235% and 87.2207%
Relative infectivity (%) ([9]; Temsavir 10 nM): 114.432% and 105.33% and 87.5665%
Relative infectivity (%) ([9]; Temsavir 50 nM): 115.171% and 108.587% and 70.9415%
Relative infectivity (%) ([9]; Temsavir 100 nM): 115.039% and 106.712% and 94.0587%
sCD4 binding (+TMR) - Fold over DMSO [10]: 0.7474 and 0.9648 and 0.9745
Relative infectivity (%) ([11]; Temsavir 1 nM): 89.8645% and 102.181% and 86.0322%
Relative infectivity (%) ([11]; Temsavir 5 nM): 77.4465% and 120.721% and 86.7772%
Relative infectivity (%) ([11]; Temsavir 10 nM): 69.308% and 86.3374% and 95.4665%
Relative infectivity (%) ([11]; Temsavir 50 nM): 75.3192% and 101.13% and 84.1355%
IC50 ([11]; Cf2Th-CD4/CCR5): > 0.05 µM
sCD4 binding (+TMR) - Fold over DMSO [12]: 1.043 and 1.054 and 0.9268
Relative infectivity (%) ([13]; Temsavir 5 nM): 61.12% and 58.84% and 77.63%
Relative infectivity (%) ([13]; Temsavir 100 nM): 18.08% and 29.17% and 19.26%
IC50 ([14]; Cf2Th-CD4/CCR5): 0.00043 µM
Relative infectivity (%) ([14]; Temsavir 0.1 nM): 69.2755% and 98.112% and 68.2496%
Relative infectivity (%) ([14]; Temsavir 5 nM): 1.701% and 2.403% and 0.1043%
Relative infectivity (%) ([14]; Temsavir 25 nM): 0.2129% and 0.1167% and 0.02715% and 9.3062%
Relative infectivity (%) ([14]; Temsavir 100 nM): 0.02755% and 0.0119% and 0.01656% and 2.113%
IC50 ([15]; Cf2Th-CD4/CCR5): 0.0647 µM
Relative infectivity (%) ([15]; JRFL S375M, Temsavir 0.1 nM): 98.6007% and 143.038% and 92.762%
sCD4 binding (+TMR) - Fold over DMSO [16]: 1.042 and 0.933 and 0.9789
sCD4 binding (+TMR) - Fold over DMSO [17]: 1.015 and 0.9829 and 1.003
Relative infectivity (%) ([18]; Temsavir 1 nM): 42.8978% and 67.1593% and 55.5357%
Relative infectivity (%) ([18]; Temsavir 5 nM): 44.0227% and 46.691% and 23.9805%
Relative infectivity (%) ([18]; Temsavir 50 nM): 14.3245% and 26.4308% and 14.3408%
IC50 ([18]; Cf2Th-CD4/CCR5): 0.00131 µM
sCD4 binding (+TMR) - Fold over DMSO [19]: 0.09994 and 0.08955 and 0.1163
sCD4 binding (+TMR) - Fold over DMSO [20]: 1.158 and 1.01 and 1.118
sCD4 binding (+TMR) - Fold over DMSO [21]: 0.6011 and 0.7082 and 0.7739
IC50 ([22]; Fig 2a, Env strains with Y61, ref Pancera et al.): 0.0004 µM
IC50 ([22]; individual strains with H375): > 20 µM and 18.1 µM and 4.04 µM and 8.52 µM and 12.7 µM and 4.77 µM and 2.81 µM and 13 µM and 4.13 µM and 5.13 µM
IC50 ([22]; individual strains with S375): 0.012 µM
IC50 ([22]; individual strains, CRF01_AE): > 20 µM and 18.1 µM and 4.04 µM and 8.52 µM and 12.7 µM and 4.77 µM and 2.81 µM and 13 µM and 4.13 µM and 5.13 µM
active against % of a panel of 208 HIV-1 Envs ([22]; whole panel, different clades): 91%
sCD4 binding (+TMR) - Fold over DMSO [23]: 1.163 and 1.208 and 0.9124
sCD4 binding (+TMR) - Fold over DMSO [24]: 0.4934 and 0.673 and 0.6222
